Source: paper PMC10600239, “Selective MCL-1 inhibitor ABBV-467 is efficacious in tumor models but is associated with cardiac troponin increases in patients” (Communications Medicine, 2023)
“And” between values parts separate entries of the source, which are not always exact repeats. Equal entries are not always repeated.

Experiments:
NCI-H929 xenografts = experiment: NCI-H929 xenograft efficacy (tumor volume, survival); assay type: in vivo; conditions: single dose […]
Method: All animal studies were conducted in accordance with the guidelines approved by the Institutional Animal Care and Use Committees of AbbVie. The research protocol was approved by In Vivo Pharmacology at AbbVie prior to study initiation but was not publicly registered or disclosed. Female C.B-17 SCID-beige mice (AMO-1, OPM-2, NCI-H929, and OCI-AML2 xenografts) and female NSG mice (MV4-11-Red.Fluc systemic) were purchased from Charles River Laboratories (Wilmington, MA). Animals were housed in a light cycle-controlled room with HEPA filtration at 22 °C. Animals had nesting and climbing cage topper as the primary environmental enrichment. […] All xenograft trials were conducted using 5 to 10 mice per group, and all mice were ear tagged and monitored individually throughout the studies. […] Tumor burden in the systemic MV4-11-Red.Fluc experiment was measured using an IVIS® spectrum from PerkinElmer by taking the total photon flux of the entire dorsal side of an individual mouse. […]
For in vivo studies, maximal tumor growth inhibition (TGI) was calculated as the greatest treatment response using the following equation: Maximal TGI = (1 − mean tumor volume of the treated group/mean tumor volume of the vehicle control group) × 100. […] Data from experiments in vivo were analyzed using the student’s t-test for TGI values and the Mann–Whitney U test for TGD using Excel and GraphPad Prism. […]

H929 cells = experiment: Caspase-3/7 activation, Δψm and annexin-V positivity by flow cytometry; assay type: cell-based, human; parameters: MMP / H929 zVAD Fig 2C: unit not given here; conditions: for Caspase-3/-7 Activation / MMP / H929 zVAD Fig 2C: H929; for Caspase-3/-7 Activation: Fig 2A; for MMP: Fig 2B
Method: H929 cells cultured in RPMI 1640 medium (Sigma, St. Louis, MO) supplemented with 10% fetal bovine serum (Gibco, Grand Island, NY) were pretreated with a pan-caspase inhibitor z-VAD-fmk (MP Biomedicals, Solon, OH; 50 µM) for 1 h before the addition of ABBV-467 for a further 6 h. Cells were then washed twice with Dulbecco’s phosphate-buffered saline and resuspended in staining buffer for determination of caspase-3/7 activation, Δψm, and annexin-V positivity using the Intellicyt MultiCyt 4-Plex Kit and high-content flow cytometry (Intellicyt, Albuquerque, NM).

SMILES: Cc1c(Cl)c2c(Cl)c(C)c1-c1c(-c3ccc(F)cc3)sc3ncnc(c13)O[C@@H](C(=O)O)Cc1cc(ccc1OCc1ccnc(-c3ccc(OC[C@H]4COCCO4)cc3)n1)OC[C@@H](CN1CCN(C)CC1)O2 [ABBV-467]
- mice with tumors remaining below 1000 mm^3 until 250 days post-treatment (NCI-H929 xenografts): 40%
- Caspase-3/-7 Activation (H929 cells; Log [ABBV-467] uM 0.045757): 53.8099 and 53.0567 and 99.0546 and 98.9774
- Caspase-3/-7 Activation (H929 cells; Log [ABBV-467] uM 0.522879): 56.0913 and 57.1822 and 99.1897 and 99.0858
- Caspase-3/-7 Activation (H929 cells; Log [ABBV-467] uM 1): 64.5099 and 63.3101 and 99.1237 and 99.059
- MMP (H929 cells; Log [ABBV-467] uM 1): 45.9293
- Caspase-3/-7 Activation (H929 cells; Log [ABBV-467] uM -0.43136): 50.714 and 51.6373 and 98.7601 and 98.6341
- MMP (H929 cells; Log [ABBV-467] uM -0.90849): 38.9227
- Caspase-3/-7 Activation (H929 cells; Log [ABBV-467] uM -1.86273): 33.5112 and 33.8695 and 61.3327 and 57.2365
- MMP (H929 cells; Log [ABBV-467] uM -1.86273): 31.9106 and 36.0956 and 42.4956 and 39.7476
- Caspase-3/-7 Activation (H929 cells; Log [ABBV-467] uM -2.33985): 30.5735 and 30.5502 and 33.1767 and 32.117
- MMP (H929 cells; Log [ABBV-467] uM -2.81697): 29.9048
- H929 zVAD Fig 2C (H929 cells; Vehicle, Log [ABBV-467] uM 0.522879): 78.4582 and 79.5333 and 93.9539 and 93.9739
- H929 zVAD Fig 2C (H929 cells; Vehicle, Log [ABBV-467] uM 1): 82.31 and 82.4987 and 93.6098 and 94.0208
- H929 zVAD Fig 2C (H929 cells; Vehicle, Log [ABBV-467] uM -0.90849): 61.8581 and 57.4223 and 88.7815 and 89.1451
- H929 zVAD Fig 2C (H929 cells; Vehicle, Log [ABBV-467] uM -1.86273): 33.1301 and 34.5804 and 48.8387 and 44.3698
- H929 zVAD Fig 2C (H929 cells; Vehicle, Log [ABBV-467] uM -2.81697): 10.2236
- H929 zVAD Fig 2C (H929 cells; z-VAD-fmk, Log [ABBV-467] uM 0.045757): 25.2697
- H929 zVAD Fig 2C (H929 cells; z-VAD-fmk, Log [ABBV-467] uM 1): 9.553 and 7.075
- H929 zVAD Fig 2C (H929 cells; z-VAD-fmk, Log [ABBV-467] uM -0.43136): 25.945
- H929 zVAD Fig 2C (H929 cells; z-VAD-fmk, Log [ABBV-467] uM -1.38561): 25.2659
- H929 zVAD Fig 2C (H929 cells; z-VAD-fmk, Log [ABBV-467] uM -1.86273): 25.2352
- H929 zVAD Fig 2C (H929 cells; z-VAD-fmk, Log [ABBV-467] uM -2.33985): 25.2036
- hallmarks of apoptosis induced (H929 cells; H929 cells, 6 h): dose-dependent loss in mitochondrial membrane potential, caspase-3/7 activation, and phosphatidyl serine externalization
- effect of pan-caspase inhibition with z-VAD-fmk on induced apoptosis (H929 cells; z-VAD-fmk 50 µM): abrogated
